Results on three molecules are retold here after patent US20120328692A1, “POTENT D-PEPTIDE ANTAGONISTS OF MDM2 AND MDMX FOR ANTICANCER THERAPY” (UNIVERSITY OF MARYLAND, BALTIMORE, priority 2011, published 2012).

Broadly, the IC50 is the point on the concentration scale where inhibition reaches its midpoint. As a reminder, the Kd is the constant that tells how readily two partners part at equilibrium. A lower Kd goes with a tighter complex.

The test system of assay [1] is human glioma cell line U87 (wild type p53). The assay is described as follows: MTS cell viability assay, U87 cells. The assay is classed as cell-based. The note with it: three-day treatment, read-out: IC50 of growth inhibition.
Text: The inhibition curves are averages of 3 independent measurements.
Assay [2] has as its system normal cells. The note with it: cited from earlier work.
Assay [3] deals with T1, ^synMDMX (^24-108MDMX, p53-binding domain of MDMX) (Homo sapiens, UniProt O15151).
T1 construct: MDMX (^24-108MDMX or syn MDMX); made in house; host or cells: chemical synthesis (inferred from the prefix 'syn'; no expression host named)
T1 sequence (O15151 24-108): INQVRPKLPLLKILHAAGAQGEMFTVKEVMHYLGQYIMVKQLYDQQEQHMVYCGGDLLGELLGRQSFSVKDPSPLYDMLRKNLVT
The assay is described as follows: competition SPR binding to synMDMX. Background: In SPR one partner is held on a chip, and binding of the other changes the refractive index at the surface.

`COc1ccc(C2=N[C@@H](c3ccc(Cl)cc3)[C@@H](c3ccc(Cl)cc3)N2C(=O)N2CCNC(=O)C2)c(OC(C)C)c1` [Nutlin-3]: in assay [1], the concentration for half-maximal inhibition (IC50) turned out to be 3.8 µM. As to MI-219, in assay [2], the “activation of the p53 pathway (accumulation of p53, increased MDM2 and p21)” value was “transient activation of the p53 pathway”; the “expression of PUMA and apoptosis” value is “fails to induce the expression of PUMA and apoptosis”.

`CC(C)C[C@@H](NC(=O)[C@H]1CCCN1C(=O)[C@@H](Cc1c[nH]c2ccccc12)NC(=O)[C@@H](Cc1c[nH]c2ccccc12)NC(=O)[C@H](N)CC(=O)O)C(=O)N[C@H](C)C(=O)N[C@H](Cc1ccccc1)C(=O)N[C@H](CCC(=O)O)C(=O)N[C@H](C)C(=O)N[C@H](CC(C)C)C(=O)N[C@H](CC(C)C)C(=O)N[C@H](CCCNC(=N)N)C(=O)O` [^DPMI-γ] had a Kd in assay [3] of 4.9 µM.
